Assay results taken from paper PMC10710035 (Breast cancer research and treatment, 2023).
Read-outs that look alike come from different tables or passages of the source.

Assays:
patients [1] = conditions: cited from earlier work
[2] = Plasma pharmacokinetics, cycle 1 day 3; type: in vivo, human
patients [3] = conditions: olaparib with carboplatin; cited from earlier work
metastatic TNBC = conditions: cited from earlier work
early-stage TNBC = conditions: weekly paclitaxel alone, then AC; 95% PI, 9-43%; cited from earlier work
BRCA mutated TNBC = conditions: addition of 120 mg BID to carboplatin plus paclitaxel; BROCADE 2; cited from earlier work
[4] = tested on: patients with advanced solid tumors
[5] = tested on: patients with advanced solid tumors; type: in vivo
[6] = cisplatin without veliparib, BRCA-like phenotype
[7] = Expansion (n = 12), veliparib 150 mg bid continuous
[8] = Level 1 (n = 3), veliparib 50 mg bid
[9] = Level 2 (n = 3), veliparib 100 mg bid
[10] = Level 3 (n = 7), veliparib 150 mg bid
[11] = Level 4 (n = 5), veliparib 200 mg bid

Compound: Cn1ncnc1[C@H]1c2n[nH]c(=O)c3cc(F)cc(c23)N[C@@H]1c1ccc(F)cc1 [Talazoparib, talazoparib]
- single agent MTD (patients [1]; single agent): 1000 µg
- patients with dose modification (patients [1]; talazoparib with carboplatin AUC5-6 and paclitaxel 80 mg/m^2 days 1, 8, 15 of 21-day cycles): 87-100%

Compound: N.N.O=C([O-])C1(C(=O)[O-])CCC1.[Pt+2] [Carboplatin, carboplatin]
- Cmax and AUC0-∞, impact of veliparib dose ([2]; ultrafilterable carboplatin, 20 evaluable patients): not impacted

Compound: O=C(c1cc(Cc2n[nH]c(=O)c3ccccc23)ccc1F)N1CCN(C(=O)C2CC2)CC1 [olaparib]
- tolerability with carboplatin (patients [3]): not tolerable

Compound: N.N.[Cl][Pt][Cl] [cisplatin]
- PFS at 1 year (metastatic TNBC; [6]): 7%
- median PFS (metastatic TNBC; [6]): 4.3 months
- rate of grade 3/4 neutropenia (metastatic TNBC; in vivo): 19%

Compound: CC(=O)O[C@H]1C(=O)[C@@]2(C)[C@H]([C@H](OC(=O)c3ccccc3)[C@]3(O)C[C@H](OC(=O)[C@H](O)[C@@H](NC(=O)c4ccccc4)c4ccccc4)C(C)=C1C3(C)C)[C@]1(OC(C)=O)CO[C@@H]1C[C@@H]2O [Paclitaxel, paclitaxel]
- complete pathological response (cPR) rate (early-stage TNBC): 26%
- exposure (Cmax and AUC0-∞) across veliparib doses ([2]; human, in vivo): not altered

Compound: C[C@]1(c2nc3c(C(N)=O)cccc3[nH]2)CCCN1 [veliparib]
- clearance ([2]; human, in vivo): 387 mL/min
- half-life ([2]; human, in vivo): 4.8 h
- AUC0-12 and Cmax versus dose ([2]; in vivo): increase linearly with dose
- ORR (BRCA mutated TNBC): improved ORR
- PFS benefit (BRCA mutated TNBC): did not translate into a PFS benefit
- DLT ([4]; in vivo): without DLT
- patients who experienced a DLT ([4]; in vivo): none
- MTD ([4]; with weekly carboplatin and paclitaxel, enrollment to DL4 terminated): not formally reached
- thrombocytopenia grade 3/4 ([5]; 4 patients of 30, all dose levels and cycles): 13%
- anemia grade 3/4 ([5]; 7 patients of 30, all dose levels and cycles): 23%
- neutropenia grade 3/4 ([5]; 18 patients of 30, all dose levels and cycles): 60%
- relationship between veliparib dose level and incidence or severity of adverse events ([5]; 50-200 mg bid): no clear relationship
- ALT increased, any grade ([5]; All Patients (N = 30)): 4 (13%)
- AST increased, any grade ([5]; All Patients (N = 30)): 3 (10%)
- Anemia, any grade ([5]; All Patients (N = 30)): 20 (67%)
- Anemia, grade ≥ 3 ([5]; All Patients (N = 30)): 7 (23%)
- Anorexia, any grade ([5]; All Patients (N = 30)): 3 (10%)
- Any Grade ≥ 3 AE ([5]; All Patients (N = 30)): 24 (80%)
- Any grade AE ([5]; All Patients (N = 30)): 28 (93%)
- Bruising, any grade ([5]; All Patients (N = 30)): 2 (7%)
- Dehydration, grade ≥ 3 ([5]; All Patients (N = 30)): 1 (3%)
- Diarrhea, any grade ([5]; All Patients (N = 30)): 5 (17%)
- Dysgeusia, any grade ([5]; All Patients (N = 30)): 2 (7%)
- Fatigue, any grade ([5]; All Patients (N = 30)): 18 (60%)
- Fatigue, grade ≥ 3 ([5]; All Patients (N = 30)): 1 (3%)
- Febrile neutropenia, grade ≥ 3 ([5]; All Patients (N = 30)): 1 (3%)
- Headache, any grade ([5]; All Patients (N = 30)): 3 (10%)
- Hot flashes, any grade ([5]; All Patients (N = 30)): 4 (13%)
- Hyperglycemia, any grade ([5]; All Patients (N = 30)): 2 (7%)
- Hypocalcemia, any grade ([5]; All Patients (N = 30)): 3 (10%)
- Hyponatremia, any grade ([5]; All Patients (N = 30)): 2 (7%)
- Hypophosphatemia, any grade ([5]; All Patients (N = 30)): 4 (13%)
- Hypophosphatemia, grade ≥ 3 ([5]; All Patients (N = 30)): 1 (3%)
- Lymphocyte count decreased, any grade ([5]; All Patients (N = 30)): 11 (37%)
- Lymphocyte count decreased, grade ≥ 3 ([5]; All Patients (N = 30)): 7 (23%)
- Myalgia, any grade ([5]; All Patients (N = 30)): 3 (10%)
- Nausea, any grade ([5]; All Patients (N = 30)): 16 (53%)
- Nausea, grade ≥ 3 ([5]; All Patients (N = 30)): 2 (7%)
- Neutrophil count decreased, any grade ([5]; All Patients (N = 30)): 24 (80%)
- Neutrophil count decreased, grade ≥ 3 ([5]; All Patients (N = 30)): 18 (60%)
- Peripheral sensory neuropathy, any grade ([5]; All Patients (N = 30)): 3 (10%)
- Platelet count decreased, any grade ([5]; All Patients (N = 30)): 22 (73%)
- Platelet count decreased, grade ≥ 3 ([5]; All Patients (N = 30)): 4 (13%)
- Rash maculo-papular, any grade ([5]; All Patients (N = 30)): 2 (7%)
- Vomiting, any grade ([5]; All Patients (N = 30)): 4 (13%)
- Vomiting, grade ≥ 3 ([5]; All Patients (N = 30)): 1 (3%)
- White blood cell decreased, any grade ([5]; All Patients (N = 30)): 22 (73%)
- White blood cell decreased, grade ≥ 3 ([5]; All Patients (N = 30)): 15 (50%)
- ALT increased, any grade [5, 7]: 3 (25%)
- AST increased, any grade [5, 7]: 2 (17%)
- Anemia, any grade [5, 7]: 9 (75%)
- Anemia, grade ≥ 3 [5, 7]: 3 (25%)
- Anorexia, any grade [5, 7]: 2 (17%)
- Any Grade ≥ 3 AE [5, 7]: 11 (92%)
- Any grade AE [5, 7]: 12 (100%)
- Bruising, any grade [5, 7]: 1 (8%)
- Dehydration, grade ≥ 3 [5, 7]: 1 (8%)
- Diarrhea, any grade [5, 7]: 3 (25%)
- Fatigue, any grade [5, 7]: 8 (67%)
- Febrile neutropenia, grade ≥ 3 [5, 7]: 1 (8%)
- Headache, any grade [5, 7]: 2 (17%)
- Hot flashes, any grade [5, 7]: 2 (17%)
- Hypocalcemia, any grade [5, 7]: 1 (8%)
- Hypophosphatemia, any grade [5, 7]: 3 (25%)
- Hypophosphatemia, grade ≥ 3 [5, 7]: 1 (8%)
- Lymphocyte count decreased, any grade [5, 7]: 7 (58%)
- Lymphocyte count decreased, grade ≥ 3 [5, 7]: 3 (25%)
- Myalgia, any grade [5, 7]: 2 (17%)
- Nausea, any grade [5, 7]: 10 (83%)
- Nausea, grade ≥ 3 [5, 7]: 1 (8%)
- Neutrophil count decreased, any grade [5, 7]: 10 (83%)
- Neutrophil count decreased, grade ≥ 3 [5, 7]: 6 (50%)
- Peripheral sensory neuropathy, any grade [5, 7]: 2 (17%)
- Platelet count decreased, any grade [5, 7]: 10 (83%)
- Platelet count decreased, grade ≥ 3 [5, 7]: 2 (17%)
- Vomiting, any grade [5, 7]: 3 (25%)
- White blood cell decreased, any grade [5, 7]: 10 (83%)
- White blood cell decreased, grade ≥ 3 [5, 7]: 7 (58%)
- Any Grade ≥ 3 AE [5, 8]: 2 (67%)
- Any grade AE [5, 8]: 2 (67%)
- Neutrophil count decreased, any grade [5, 8]: 2 (67%)
- Neutrophil count decreased, grade ≥ 3 [5, 8]: 2 (67%)
- Platelet count decreased, any grade [5, 8]: 1 (33%)
- Anemia, any grade [5, 9]: 3 (100%)
- Any Grade ≥ 3 AE [5, 9]: 2 (67%)
- Any grade AE [5, 9]: 3 (100%)
- Bruising, any grade [5, 9]: 1 (33%)
- Diarrhea, any grade [5, 9]: 2 (67%)
- Dysgeusia, any grade [5, 9]: 1 (33%)
- Fatigue, any grade [5, 9]: 3 (100%)
- Hot flashes, any grade [5, 9]: 1 (33%)
- Hyperglycemia, any grade [5, 9]: 1 (33%)
- Hypocalcemia, any grade [5, 9]: 1 (33%)
- Hyponatremia, any grade [5, 9]: 1 (33%)
- Myalgia, any grade [5, 9]: 1 (33%)
- Nausea, any grade [5, 9]: 3 (100%)
- Neutrophil count decreased, any grade [5, 9]: 3 (100%)
- Neutrophil count decreased, grade ≥ 3 [5, 9]: 2 (67%)
- Platelet count decreased, any grade [5, 9]: 3 (100%)
- Rash maculo-papular, any grade [5, 9]: 1 (33%)
- White blood cell decreased, any grade [5, 9]: 3 (100%)
- White blood cell decreased, grade ≥ 3 [5, 9]: 1 (33%)
- ALT increased, any grade [5, 10]: 1 (14%)
- AST increased, any grade [5, 10]: 1 (14%)
- Anemia, any grade [5, 10]: 4 (57%)
- Anemia, grade ≥ 3 [5, 10]: 2 (29%)
- Anorexia, any grade [5, 10]: 1 (14%)
- Any Grade ≥ 3 AE [5, 10]: 4 (57%)
- Any grade AE [5, 10]: 6 (86%)
- Dysgeusia, any grade [5, 10]: 1 (14%)
- Fatigue, any grade [5, 10]: 3 (43%)
- Headache, any grade [5, 10]: 1 (14%)
- Hot flashes, any grade [5, 10]: 1 (14%)
- Hyperglycemia, any grade [5, 10]: 1 (14%)
- Hypocalcemia, any grade [5, 10]: 1 (14%)
- Hyponatremia, any grade [5, 10]: 1 (14%)
- Hypophosphatemia, any grade [5, 10]: 1 (14%)
- Lymphocyte count decreased, any grade [5, 10]: 2 (29%)
- Lymphocyte count decreased, grade ≥ 3 [5, 10]: 2 (29%)
- Nausea, any grade [5, 10]: 2 (29%)
- Neutrophil count decreased, any grade [5, 10]: 4 (57%)
- Neutrophil count decreased, grade ≥ 3 [5, 10]: 3 (43%)
- Peripheral sensory neuropathy, any grade [5, 10]: 1 (14%)
- Platelet count decreased, any grade [5, 10]: 4 (57%)
- Platelet count decreased, grade ≥ 3 [5, 10]: 2 (29%)
- Rash maculo-papular, any grade [5, 10]: 1 (14%)
- White blood cell decreased, any grade [5, 10]: 4 (57%)
- White blood cell decreased, grade ≥ 3 [5, 10]: 2 (29%)
- Anemia, any grade [5, 11]: 4 (80%)
- Anemia, grade ≥ 3 [5, 11]: 2 (40%)
- Any Grade ≥ 3 AE [5, 11]: 5 (100%)
- Any grade AE [5, 11]: 5 (100%)
- Fatigue, any grade [5, 11]: 4 (80%)
- Fatigue, grade ≥ 3 [5, 11]: 1 (20%)
- Lymphocyte count decreased, any grade [5, 11]: 2 (40%)
- Lymphocyte count decreased, grade ≥ 3 [5, 11]: 2 (40%)
- Nausea, any grade [5, 11]: 1 (20%)
- Nausea, grade ≥ 3 [5, 11]: 1 (20%)
- Neutrophil count decreased, any grade [5, 11]: 5 (100%)
- Neutrophil count decreased, grade ≥ 3 [5, 11]: 5 (100%)
- Platelet count decreased, any grade [5, 11]: 4 (80%)
- Vomiting, any grade [5, 11]: 1 (20%)
- Vomiting, grade ≥ 3 [5, 11]: 1 (20%)
- White blood cell decreased, any grade [5, 11]: 5 (100%)
- White blood cell decreased, grade ≥ 3 [5, 11]: 5 (100%)
- came off study due to toxicity ([5]; of the total 30 patients enrolled): 10 patients
- PFS at 1 year (metastatic TNBC; veliparib with cisplatin, BRCA-like phenotype): 20%
- rate of grade 3/4 neutropenia (metastatic TNBC; veliparib with cisplatin): 46%
